Values joined by “and” are separate entries in the source; they are usually repeats but may differ in a detail not shown here. Equal values may be shown once.
Columns and labels:
C. elegans [1] = assay: Lifespan of C. elegans fed on E. coli cultured with dapsone; assay type: in vivo, Caenorhabditis elegans; parameters: Mean lifespan (Mean ± SE): unit not given beside the values
Method: In order to identify the effect of dapsone on the extending of lifespan, the experiment was performed in the following order. At this time, since dapsone is not a water-soluble material, E. coli was cultured in the medium including dapsone and then was used as a feed for C. elegans. […] generation, and the experiment was performed as follows under the condition of 20° C. in order to provide the optimal growth environment: 1) A parent C. elegans of L4 stage was transferred to the medium containing dapsone and PABA, and the progeny of first generation was transferred to the new medium after four days to lay an egg for 4 to 5 hours. […] C. elegans, which […], was excluded from the statistical analysis. […] The significant difference of statistical average lifespan used Log-rank test.

mitochondria complex = assay: Mitochondria complex protein amount by Western blot in PQ-treated human diploid fibroblast; assay type: cell-based; settings: 1 mM PQ 24 hours, FIG. 29A
Method: (§1) The protein amount of mitochondria constituent complex was measured by using Western Blot using Complex I (20 kDa ND6 subunit), Complex II (30 kDa FeS, non-heme iron protein, SDHB), Complex III (47 kDa core protein 2), Complex IV (18 kDa subunit IV), Complex V (55 kDa subunit a ATP synthase), and the like. […] The membrane potential (Δψm) of mitochondria used DiOC6. […] Since then, the above fibroblast was treated with 40 nM of DiOC6 for 15 minutes. The results were measured by using Cary Eclipse Fluorescence Spectrophotometer (Varian, Calif., USA) and the excitation wavelength and emission wavelength were measured at 480 nm and 520 nm, respectively.
The isolated sample was transferred to a nitrocellulose and analyzed through Western Blot using MS601 (Total OXPHOS Complexes Detection Kit, MitoSciences, containing antibodies against SDH30 subunit of complex II (5 μg/ml), Core2 subunit of complex III (0.2 μg/ml), COXII subunit of complex IV (2 μg/ml), and subunit α of F1-ATPase of complex V (0.2 μg/ml)), PCKpan-p, PCKα/β-p, PKCδ-p (Phospho-PKC antibody Sampler Kit, Cell Signaling Technology), PKC α, PCKβ, PKCδ (Life Technologies), β-Actin (Sigma), and the like. […] The results were shown through visualizing by using Autoradiographic film (Image Reader, LAS-3000Fujifilm, Japan).

[2] = test system: membrane potential of mitochondria; assay: Membrane potential of mitochondria, DiOC6 assay; assay type: cell-based, human; settings: pretreated with DDS (3 hours) or DPI (30 minutes), then 1 mM PQ 24 hours; FIG. 29B
Method: as §1
The change of membrane potential (Δψm) of mitochondria was measured by using a cationic dye, DiOC6 that is a specific fluorescent material for mitochondria. An aspect of the change was measured by using Fluorescence Spectrophotometer. The cell was cultured in 40 nM DiQC6 for 15 minutes and then the fluorescent material that was left was removed by using PBS. The analysis was performed by using Cary Eclipse fluorescence spectrophotometer (Varian, Calif., USA), and then the excitation wavelength was measured at 480 nm, and the emission wavelength was measured at 520 nm.

C. elegans [3] = assay: Vitality (movements) of worms at 23 days; assay type: in vivo; settings: 23 days after adult; FIG. 4
Source text: At this time, the arrows indicate the initial positions of worms.

mitochondria complex V = assay: Western blot of mitochondria complex V amount in C. elegans; assay type: in vivo; settings: C. elegans treated with DDS; FIG. 8
Method: C. elegans was isolated and collected by using dense sucrose (Centrifugation) and was washed with S buffer solution to remove a contaminant. In order to isolate mitochondria, C. elegans was twice homogenized in MSM buffer solution (220 mM mannitol, 10 mM sucrose, 5 mM MOPS, pH 7.4, with KOH) containing 0.2% of BSA at 5000 rpm for 20 seconds by using Precellys24 Homogenizer (Medinova) and Glass bead. The residue and non-homogenized C. elegans were removed fro the homogenized C. elegans through a centrifuge (380 g, 5 min) by using MSM buffer solution. The precipitate of homogenous substance that was centrifuged at 4500 g for 5 minutes, i.e., mitochondria were prepared. The rest was prepared as a part of cytoplasm. […] The quantitation of protein was performed by using BCA protein detection kit (Pierce).
The lysates of C. elegans grown under appropriate condition (containing PABA alone or PABA and dapsone) were prepared. […] After transferring to a nitrocellulose, they were analyzed by using Western Blot using MS601 (subunit α of F1 of ATP synthase, Oxphos Complexes detection kit, Mitoscience, 1:1,000) and α-Tubulin (Sigma; 1:2,000) antibody. The result was detected by using ECL (Pierce) and a horseradish peroxidase-conjugated secondary antibody.

Nc1ccc(S(=O)(=O)c2ccc(N)cc2)cc1 [DDS, 4,4′-diaminodiphenylsulfone]
average lifespan and maximum lifespan compared with the control (C. elegans [1]; DDS after L4-stage and during the whole life, FIG. 3A, B): significantly increased | Mean lifespan (Mean ± SE) (C. elegans [1]; strain N2, OP50 + PABA + DDS (2 mM) after L4 stage, Figure 1B, four trials): 23.04 ± 0.7 and 34.26 ± 0.8 and 23.76 ± 0.6 and 18.87 ± 0.4 | Mean lifespan (Mean ± SE) (C. elegans [1]; strain N2, OP50 + PABA + DDS (2 mM) in the whole life, Figure 1A, two trials): 23.07 ± 0.5 and 24.31 ± 0.6 | Mean lifespan (Mean ± SE) (C. elegans [1]; strain N2, OP50 + PABA + DDS, Figure 3F, two trials): 23.72 ± 0.7 and 19.74 ± 0.6 | Mean lifespan (Mean ± SE) (C. elegans [1]; strain N2, feeding OP50 + 0.5 mM DDS, Figure S7): 22.03 ± 0.6 | Mean lifespan (Mean ± SE) (C. elegans [1]; strain N2, feeding OP50 + 1 mM DDS, Figure S7): 22.20 ± 0.6 | Mean lifespan (Mean ± SE) (C. elegans [1]; strain N2, feeding folP + DDS (bacteria lacking folP), Figure S2, three trials): 16.90 ± 0.3 and 17.43 ± 0.4 and 17.87 ± 0.4 | Mean lifespan (Mean ± SE) (C. elegans [1]; strain daf-16(cf1038), OP50 + PABA + DDS (2 mM), Figure 2A, two trials): 15.69 ± 0.5 and 17.40 ± 0.3 | Mean lifespan (Mean ± SE) (C. elegans [1]; strain pyk-1(ok1754), OP50 + PABA + DDS, Figure 3F, two trials): 21.92 ± 0.8 and 23.37 ± 0.6 | amount of mitochondria complex reduced by PQ (mitochondria complex): recover | decrease of membrane potential induced by PQ [2]: meaningfully maintained | movement of worms (C. elegans [3]): more strong active movement | amount of complex V (mitochondria complex V): significantly decreased
